Measured values: patent US20240208970A1, “SUBSTITUTED HYDANTOIN COMPOUNDS, METHODS FOR PREPARATION THEREOF AND USE THEREOF IN THE TREATMENT AND/OR PREVENTION OF A CORONA VIRUS DISEASE” (priority 2021, published 2024)

Target: SARS-CoV-2 M^pro protease (Severe acute respiratory syndrome coronavirus 2 (2019-nCoV) (SARS-CoV-2), UniProt P0DTD1)
Assay: biochemical
Format: biochemical
Settings: M^pro 75 nM, substrate 10 μM

Row | SMILES | IC50 (Tables 5B-5E) [µM] | IC50 (Table 5A) [µM]
1 | O=C1NC2(CC(c3ccccc3Br)C2)C(=O)N1c1cncc2ccccc12 (single isomer, unassigned) [Compound 16, 2-(2-bromophenyl)-7-(isoquinolin-4-yl)-5,7-diazaspiro[3.4]octane-6,8-dione] | 0.127 | –
2 | O=C1NC2(CC(c3ccccc3Br)C2)C(=O)N1c1cncc2ccccc12 (single isomer, unassigned) [Compound 17, 2-(2-bromophenyl)-7-(isoquinolin-4-yl)-5,7-diazaspiro[3.4]octane-6,8-dione] | 0.079 | –
3 | O=C1NC2(CC(c3c(Cl)cccc3Cl)C2)C(=O)N1c1cncc2ccccc12 (single isomer, unassigned) [Compound 28, 2-(2,6-dichlorophenyl)-7-(isoquinolin-4-yl)-5,7-diazaspiro[3.4]octane-6,8-dione] | 0.291 | –
4 | O=C1NC2(CC(c3c(Cl)cccc3Cl)C2)C(=O)N1c1cncc2ccccc12 (single isomer, unassigned) [Compound 29, 2-(2,6-dichlorophenyl)-7-(isoquinolin-4-yl)-5,7-diazaspiro[3.4]octane-6,8-dione] | 0.165 | –
5 | O=C1NC2(CC(c3cccc(F)c3Cl)C2)C(=O)N1c1cncc2ccccc12 (single isomer, unassigned) [Compound 30, 2-(2-chloro-3-fluorophenyl)-7-(isoquinolin-4-yl)-5,7-diazaspiro[3.4]octane-6,8-dione] | 0.372 | –
6 | O=C1NC2(CC(c3cccc(F)c3Cl)C2)C(=O)N1c1cncc2ccccc12 (single isomer, unassigned) [Compound 31, 2-(2-chloro-3-fluorophenyl)-7-(isoquinolin-4-yl)-5,7-diazaspiro[3.4]octane-6,8-dione] | 0.15 | –
7 | O=C1NC2(CC(c3cc(F)ccc3Cl)C2)C(=O)N1c1cncc2ccccc12 (single isomer, unassigned) [Compound 34, 2-(2-chloro-5-fluorophenyl)-7-(isoquinolin-4-yl)-5,7-diazaspiro[3.4]octane-6,8-dione] | 0.475 | –
8 | O=C1NC2(CC(c3cc(F)ccc3Cl)C2)C(=O)N1c1cncc2ccccc12 (single isomer, unassigned) [Compound 35, 2-(2-chloro-5-fluorophenyl)-7-(isoquinolin-4-yl)-5,7-diazaspiro[3.4]octane-6,8-dione] | 0.082 | –
9 | O=C1NC2(CC(c3c(F)cccc3Cl)C2)C(=O)N1c1cncc2ccccc12 (single isomer, unassigned) [Compound 36, 2-(2-chloro-6-fluorophenyl)-7-(isoquinolin-4-yl)-5,7-diazaspiro[3.4]octane-6,8-dione] | 0.205 | –
10 | O=C1NC2(CC(c3c(F)cccc3Cl)C2)C(=O)N1c1cncc2ccccc12 (single isomer, unassigned) [Compound 37, 2-(2-chloro-6-fluorophenyl)-7-(isoquinolin-4-yl)-5,7-diazaspiro[3.4]octane-6,8-dione] | 0.064 | –
11 | CC1(c2ccccc2)CC2(C1)NC(=O)N(c1cncc3ccccc13)C2=O (single isomer, unassigned) [Compound 38, 7-(isoquinolin-4-yl)-2-methyl-2-phenyl-5,7-diazaspiro[3.4]octane-6,8-dione] | 0.071 | –
12 | CC1(c2ccccc2)CC2(C1)NC(=O)N(c1cncc3ccccc13)C2=O (single isomer, unassigned) [Compound 39, 7-(isoquinolin-4-yl)-2-methyl-2-phenyl-5,7-diazaspiro[3.4]octane-6,8-dione] | 0.926 | –
13 | O=C1NC2(CC(c3ccsc3Cl)C2)C(=O)N1c1cncc2ccccc12 (single isomer, unassigned) [Compound 40, 2-(2-chlorothiophen-3-yl)-7-(isoquinolin-4-yl)-5,7-diazaspiro[3.4]octane-6,8-dione] | 0.304 | –
14 | O=C1NC2(CC(c3ccsc3Cl)C2)C(=O)N1c1cncc2ccccc12 (single isomer, unassigned) [Compound 41, 2-(2-chlorothiophen-3-yl)-7-(isoquinolin-4-yl)-5,7-diazaspiro[3.4]octane-6,8-dione] | 0.081 | –
15 | O=C1NC2(CC(c3sccc3Cl)C2)C(=O)N1c1cncc2ccccc12 (single isomer, unassigned) [Compound 42, 2-(3-chlorothiophen-2-yl)-7-(isoquinolin-4-yl)-5,7-diazaspiro[3.4]octane-6,8-dione] | 0.185 | –
16 | O=C1NC2(CC(c3sccc3Cl)C2)C(=O)N1c1cncc2ccccc12 (single isomer, unassigned) [Compound 43, 2-(3-chlorothiophen-2-yl)-7-(isoquinolin-4-yl)-5,7-diazaspiro[3.4]octane-6,8-dione] | 0.059 | –
17 | O=C1NC2(CC(c3sccc3Br)C2)C(=O)N1c1cncc2ccccc12 (single isomer, unassigned) [Compound 44, 2-(3-bromothiophen-2-yl)-7-(isoquinolin-4-yl)-5,7-diazaspiro[3.4]octane-6,8-dione] | 0.081 | –
18 | O=C1NC2(CC(c3sccc3Br)C2)C(=O)N1c1cncc2ccccc12 (single isomer, unassigned) [Compound 45, 2-(3-bromothiophen-2-yl)-7-(isoquinolin-4-yl)-5,7-diazaspiro[3.4]octane-6,8-dione] | 0.057 | –
19 | CC1(c2ccc(F)cc2Cl)CC2(C1)NC(=O)N(c1cncc3ccccc13)C2=O (single isomer, unassigned) [Compound 83, 2-(2-chloro-4-fluorophenyl)-7-(isoquinolin-4-yl)-2-methyl-5,7-diazaspiro[3.4]octane-6,8-dione] | 0.241 | –
20 | CC1(c2ccc(F)cc2Cl)CC2(C1)NC(=O)N(c1cncc3ccccc13)C2=O (single isomer, unassigned) [Compound 84, 2-(2-chloro-4-fluorophenyl)-7-(isoquinolin-4-yl)-2-methyl-5,7-diazaspiro[3.4]octane-6,8-dione] | 0.806 | –

Row | SMILES | IC50 (Tables 5B-5E) [µM] | IC50 (Table 5A) [µM]
21 | Cc1c(Br)cncc1N1C(=O)NC2(CC(C(C)(C)C)C2)C1=O (stereo not drawn) [Compound 5, 7-(5-bromo-4-methylpyridin-3-yl)-2-tert-butyl-5,7-diazaspiro[3.4]octane-6,8-dione] | – | 2.7
22 | Cc1c(Br)cncc1N1C(=O)NC2(CC(C3CCC3)C2)C1=O (stereo not drawn) [Compound 6, 7-(5-bromo-4-methylpyridin-3-yl)-2-cyclobutyl-5,7-diazaspiro[3.4]octane-6,8-dione] | – | 2
23 | Cc1c(Br)cncc1N1C(=O)NC2(CC(c3ccccc3)C2)C1=O (stereo not drawn) [Compound 7, 7-(5-bromo-4-methylpyridin-3-yl)-2-phenyl-5,7-diazaspiro[3.4]octane-6,8-dione] | – | 2
24 | Cc1cccnc1CN1C(=O)NC2(CC(C(C)(C)C)C2)C1=O (stereo not drawn) [Compound 9, 2-tert-butyl-7-[(3-methylpyridin-2-yl)methyl]-5,7-diazaspiro[3.4]octane-6,8-dione] | – | > 10
25 | Cc1ccncc1N1C(=O)NC2(CC(c3ccccc3)C2)C1=O (stereo not drawn) [Compound 11, 7-(4-methylpyridin-3-yl)-2-phenyl-5,7-diazaspiro[3.4]octane-6,8-dione] | – | 2.3
26 | CC(C)(C)C1CC2(C1)NC(=O)N(c1cncc(F)c1)C2=O (stereo not drawn) [Compound 12, 2-tert-butyl-7-(5-fluoropyridin-3-yl)-5,7-diazaspiro[3.4]octane-6,8-dione] | – | 5.5
27 | O=C1NC2(CC(C3CCC3)C2)C(=O)N1c1cncc(Br)c1 (stereo not drawn) [Compound 14, 7-(5-bromopyridin-3-yl)-2-cyclobutyl-5,7-diazaspiro[3.4]octane-6,8-dione] | – | 6
28 | O=C1NC2(CC(c3ccccc3F)C2)C(=O)N1c1cncc2ccccc12 (stereo not drawn) [Compound 18, 2-(2-fluorophenyl)-7-(isoquinolin-4-yl)-5,7-diazaspiro[3.4]octane-6,8-dione] | 0.335 | –
29 | O=C1NC2(CC(c3ccccc3F)C2)C(=O)N1c1cncc2ccccc12 (stereo not drawn) [Compound 19, 2-(2-fluorophenyl)-7-(isoquinolin-4-yl)-5,7-diazaspiro[3.4]octane-6,8-dione] | 0.326 | –
30 | COc1ccccc1C1CC2(C1)NC(=O)N(c1cncc3ccccc13)C2=O (stereo not drawn) [Compound 20, 7-(isoquinolin-4-yl)-2-(2-methoxyphenyl)-5,7-diazaspiro[3.4]octane-6,8-dione] | 0.477 | –
31 | O=C1NC2(CC(c3ccccc3C(F)(F)F)C2)C(=O)N1c1cncc2ccccc12 (stereo not drawn) [Compound 22, 7-(isoquinolin-4-yl)-2-(2-(trifluoromethyl)phenyl)-5,7-diazaspiro[3.4]octane-6,8-dione] | 0.197 | –
32 | Cc1ccccc1C1CC2(C1)NC(=O)N(c1cncc3ccccc13)C2=O (stereo not drawn) [Compound 23, 7-(isoquinolin-4-yl)-2-(o-tolyl)-5,7-diazaspiro[3.4]octane-6,8-dione] | 0.925 | –
33 | N#Cc1ccccc1C1CC2(C1)NC(=O)N(c1cncc3ccccc13)C2=O (stereo not drawn) [Compound 24, 2-(7-(isoquinolin-4-yl)-6,8-dioxo-5,7-diazaspiro[3.4]octan-2-yl)benzonitrile] | 0.086 | –
34 | O=C1NC2(CC(c3cccc(Cl)c3)C2)C(=O)N1c1cncc2ccccc12 (stereo not drawn) [Compound 25, 2-(3-chlorophenyl)-7-(isoquinolin-4-yl)-5,7-diazaspiro[3.4]octane-6,8-dione] | 0.931 | –
35 | O=C1NC2(CC(c3ccc(F)cc3)C2)C(=O)N1c1cncc2ccccc12 (stereo not drawn) [Compound 27, 2-(4-fluorophenyl)-7-(isoquinolin-4-yl)-5,7-diazaspiro[3.4]octane-6,8-dione] | 0.441 | –
36 | O=C1NC2(CC(c3ccc(F)cc3Cl)C2)C(=O)N1c1cncc2ccccc12 (stereo not drawn) [Compound 32, 2-(2-chloro-4-fluorophenyl)-7-(isoquinolin-4-yl)-5,7-diazaspiro[3.4]octane-6,8-dione] | 0.095 | –
37 | O=C1NC2(CC(c3ccc(F)cc3Cl)C2)C(=O)N1c1cncc2ccccc12 (stereo not drawn) [Compound 33, 2-(2-chloro-4-fluorophenyl)-7-(isoquinolin-4-yl)-5,7-diazaspiro[3.4]octane-6,8-dione] | 0.099 | –
38 | O=C1NC2(CC(c3cn(Cc4ccccc4)nn3)C2)C(=O)N1c1cncc2ccccc12 (stereo not drawn) [Compound 47, 2-(1-benzyl-1H-1,2,3-triazol-4-yl)-7-(isoquinolin-4-yl)-5,7-diazaspiro[3.4]octane-6,8-dione] | 10.8 | –
39 | O=C1NC2(CC(OCc3ccccc3)C2)C(=O)N1c1cncc2ccccc12 (stereo not drawn) [Compound 48, 2-(benzyloxy)-7-(isoquinolin-4-yl)-5,7-diazaspiro[3.4]octane-6,8-dione] | 2.58 | –
